system: human CTPS1 versus CTPS2; assay: Human CTPS1 versus CTPS2 selectivity assessment by RapidFire/MS analysis; type: biochemical; details: Table 26
Protocol: Biological Example 2—RapidFire/MS-Based Enzyme Selectivity Assays.
Human CTPS1 Versus CTPS2 Selectivity Assessment by RapidFire/MS Analysis.
The enzyme inhibitory activities against each target isoform of interest may be determined for the compounds of the invention using an optimised RapidFire high-throughput mass spectrometry (RF/MS) assay format. RF/MS assays for both human CTPS1 and CTPS2 may be performed in assay buffer consisting of 50 mM HEPES (Merck), 20 mM MgCl2, 5 mM KCl, 1 mM DTT, 0.01% Tween-20, pH to 8.0 accordingly. Human full-length active C-terminal FLAG-His-tag CTPS1 (UniProtKB-P17812, CTPS[1-591]-[…]) may be obtained from Proteros biostructures GmbH. Human full length active C-terminal FLAG-His-Avi tagged CTPS2 (UniProtKB-Q9NRF8, CTPS2 [1-586]-[…]) may be obtained from Harker Bio.
Human CTPS (1 or 2) protein may be prepared in 1× assay buffer to the final working protein concentration required for the reaction. A 2 uL volume per well of 2×CTPS (1 or 2) protein may be mixed with 40 nL of compound using acoustic (ECHO) delivery and incubated for 10 minutes at 25° C. Each isoform enzymatic reaction may be subsequently initiated by addition of 2 uL per well of a 2× substrate mix in assay buffer. For hCTPS1: ATP (0.3 mM), UTP (0.2 mM), GTP (0.07 mM) and L-glutamine (0.1 mM). For hCTPS2: ATP (0.1 mM), UTP (0.04 mM), GTP (0.03 mM) and L-glutamine (0.1 mM). Each mixture may be incubated for an appropriate amount of time per isoform within the determined linear phase of the reaction at 25° C. A 60 uL volume of stop solution (1% formic acid with 0.5 uM ^13C9-^15N3-CTP in H2O) may be added and the plate immediately heat-sealed and centrifuged for 10 minutes at 4,000 rpm. Following centrifugation, plates may be loaded onto the Agilent RapidFire microfluidic solid phase extraction system coupled to an AP14000 triple quadrupole mass spectrometer (RF/MS) for analysis.
In all cases, the enzyme converts UTP to CTP. Highly specific and sensitive multiple reaction monitoring (MRM) MS methods may be optimised for the detection of the enzymatic reaction product, CTP, and the stable isotope labelled product standard ^13C9-^15N3-CTP. Readout for data analysis may be calculated as the ratio between the peak area of the product CTP and the internal standard ^13C9-^15N3-CTP. For data reporting, the following equation may be used: […]
For each screening plate, the means of the negative (DMSO) and positive control values were used for the calculation of the respective assay window (S/B) and Z′ values. The median of the respective control values was used for calculation of percent inhibition according to the following equation: […]
Percentage inhibition was then plotted against compound concentration, and the 50% inhibitory concentration (IC50) was determined from the resultant concentration-response curve.
Fold selectivity between CTPS1 and CTPS2 was subsequently calculated according to the following equation: […]

SMILES | Selectivity (fold selectivity between CTPS1 and CTPS2)
CCOc1cncc(-c2ccc(NC(=O)C(F)(CC)c3ccnc(NS(=O)(=O)C4CC4)n3)nc2)n1 (racemic) [Example P112, 2-(2-(Cyclopropanesulfonamido)pyrimidin-4-yl)-N-(5-(6-ethoxypyrazin-2-yl)pyridin-2-yl)-2-fluorobutanamide] | ++ (>30-60 fold (++))
CCOc1cncc(-c2ccc(NC(=O)C(F)(CC)c3ccnc(NS(=O)(=O)C4CC4)n3)nc2)n1 (single isomer, unassigned) [Example P113, 2-(2-(cyclopropanesulfonamido)pyrimidin-4-yl)-N-(5-(6-ethoxypyrazin-2-yl)pyridin-2-yl)-2-fluorobutanamide] | + (2-30 fold (+))
CCOc1cncc(-c2ccc(NC(=O)C(F)(CC)c3ccnc(NS(=O)(=O)C4CC4)n3)nc2)n1 (single isomer, unassigned) [Example P114, 2-(2-(cyclopropanesulfonamido)pyrimidin-4-yl)-N-(5-(6-ethoxypyrazin-2-yl)pyridin-2-yl)-2-fluorobutanamide] | +++ (>60 fold (+++))
CCOc1cncc(-c2ccc(NC(=O)C(F)(CC)c3cncc(NS(=O)(=O)C4CC4)n3)nc2)n1 (single isomer, unassigned) [Example P206] | +++ (>60 fold (+++))
CCOc1cncc(-c2ccc(NC(=O)C(F)(CC)c3cncc(NS(=O)(=O)C4CC4)n3)nc2)n1 (single isomer, unassigned) [Example P207] | + (2-30 fold (+))
CCC(C(=O)Nc1ccc(-c2cncc(Cl)c2)cc1)c1ccnc(NS(=O)(=O)C2CC2)n1 (stereo not drawn) [Example P1, N-(4-(5-Chloropyridin-3-yl)phenyl)-2-(2-(cyclopropanesulfonamido)pyrimidin-4-yl)butanamide] | + (2-30 fold (+))
CC(C)Oc1cncc(-c2ccc(NC(=O)C(C)(C)c3ccnc(NS(=O)(=O)C4CC4)n3)nc2)n1 [Example P9] | +++ (>60 fold (+++))
CCC(C(=O)Nc1ccc(-c2cncc(C(F)(F)F)n2)cn1)c1ccnc(NS(=O)(=O)C2CC2)n1 (stereo not drawn) [Example P87] | ++ (>30-60 fold (++))
CCOc1cncc(-c2ccc(NC(=O)C(CC)c3ccnc(NS(=O)(=O)C4CC4)n3)nc2)n1 (stereo not drawn) [Example P88] | +++ (>60 fold (+++))
CCC(C(=O)Nc1ccc(-c2cncc(OC(C)C)n2)cn1)c1ccnc(NS(=O)(=O)C2CC2)n1 (stereo not drawn) [Example P89] | +++ (>60 fold (+++))
CCC(C(=O)Nc1ccc(-c2cncc(OC)n2)cc1F)c1ccnc(NS(=O)(=O)C2CC2)n1 (stereo not drawn) [Example P95] | + (2-30 fold (+))
CCOc1cncc(-c2ccc(NC(=O)C(CC)c3ccnc(NS(=O)(=O)C4CC4)n3)c(F)c2)n1 (stereo not drawn) [Example P96] | + (2-30 fold (+))
CCC(C(=O)Nc1ccc(-c2cncc(OCC(F)(F)F)n2)cc1F)c1ccnc(NS(=O)(=O)C2CC2)n1 (stereo not drawn) [Example P98] | +++ (>60 fold (+++))
CCC(C(=O)Nc1ccc(-c2cncc(C(F)(F)F)n2)cc1)c1ccnc(NS(=O)(=O)C2CC2)n1 (stereo not drawn) [Example P103] | + (2-30 fold (+))
CCOc1cncc(-c2ccc(NC(=O)C(CC)c3ccnc(NS(=O)(=O)C4CC4)n3)cc2)n1 (stereo not drawn) [Example P105, 2-(2-(Cyclopropanesulfonamido)pyrimidin-4-yl)-N-(4-(6-ethoxypyrazin-2-yl)phenyl)butanamide] | ++ (>30-60 fold (++))
CCC(C(=O)Nc1ccc(-c2cncc(OCC(F)(F)F)n2)cc1)c1ccnc(NS(=O)(=O)C2CC2)n1 (stereo not drawn) [Example P108] | +++ (>60 fold (+++))
CCOc1cncc(-c2ccc(NC(=O)C(CCOC)c3ccnc(NS(=O)(=O)C4CC4)n3)cc2)n1 (stereo not drawn) [Example P110] | ++ (>30-60 fold (++))
CCOc1cncc(-c2ccc(NC(=O)C(CC)c3cccc(NS(=O)(=O)C4CC4)n3)nc2)n1 (stereo not drawn) [Example P188] | ++ (>30-60 fold (++))
CCOc1cncc(-c2ccc(NC(=O)C(CC)c3cccc(NS(=O)(=O)C4CC4)n3)cc2)n1 (stereo not drawn) [Example P191] | ++ (>30-60 fold (++))
CCOc1cncc(-c2ccc(NC(=O)C(C)(CCOC)c3cncc(NS(=O)(=O)C4CC4)n3)nc2)n1 (stereo not drawn) [Example P198] | +++ (>60 fold (+++))
CCOc1cncc(-c2ccc(NC(=O)C(F)(CC)c3cncc(NS(=O)(=O)C4CC4)n3)nc2)n1 (stereo not drawn) [Example P200] | ++ (>30-60 fold (++))
CCOc1cncc(-c2ccc(NC(=O)C(CC)c3cncc(NS(=O)(=O)C4CC4)n3)nc2)n1 (stereo not drawn) [Example P201] | +++ (>60 fold (+++))
CCOc1cncc(-c2ccc(NC(=O)C(CC)c3cncc(NS(=O)(=O)C4CC4)n3)cc2)n1 (stereo not drawn) [Example P202] | +++ (>60 fold (+++))
CCOc1cncc(-c2ccc(NC(=O)C(C)(OC)c3cncc(NS(=O)(=O)C4CC4)n3)nc2)n1 (stereo not drawn) [Example P205a] | +++ (>60 fold (+++))
CCOc1cncc(-c2ccc(NC(=O)C(C)(OC)c3cncc(NS(=O)(=O)C4CC4)n3)nc2)n1 (stereo not drawn) [Example P205b] | ++ (>30-60 fold (++))
CCOc1cncc(-c2ccc(C(=O)NC(CC)c3ccnc(NS(=O)(=O)C4CC4)n3)c(F)c2)n1 (stereo not drawn) [Example P216] | +++ (>60 fold (+++))

same assay, conditions: Table 27

SMILES | Selectivity (fold selectivity between CTPS1 and CTPS2)
CCOc1cncc(-c2ccc(NC(=O)C3(c4ccnc(NS(=O)(=O)C5CC5)n4)CCC(O)CC3)nc2)n1 (single isomer, unassigned) [Example P227, 1-(2-(cyclopropanesulfonamido)pyrimidin-4-yl)-N-(5-(6-ethoxypyrazin-2-yl)pyridin-2-yl)-4-hydroxycyclohexanecarboxamide] | +++ (>60 fold (+++))
CCOc1cncc(-c2ccc(NC(=O)C3(c4ccnc(NS(=O)(=O)C5CC5)n4)CCC(O)CC3)nc2)n1 (single isomer, unassigned) [Example P228, 1-(2-(cyclopropanesulfonamido)pyrimidin-4-yl)-N-(5-(6-ethoxypyrazin-2-yl)pyridin-2-yl)-4-hydroxycyclohexanecarboxamide] | + (2-30 fold (+))

target: T1, human CTPS1 (Homo sapiens, UniProt P17812); assay: Human CTPS1 enzyme inhibition (ADP-Glo Max assay); type: biochemical; details: Table 24; ADP-Glo Max assay; read-out: CTPS1 (Human CTPS1 Enzyme Inhibition data grouped by potency range, IC50)
T1 construct: purchased Proteros biostructures GmbH
T1 sequence (P17812 1-591): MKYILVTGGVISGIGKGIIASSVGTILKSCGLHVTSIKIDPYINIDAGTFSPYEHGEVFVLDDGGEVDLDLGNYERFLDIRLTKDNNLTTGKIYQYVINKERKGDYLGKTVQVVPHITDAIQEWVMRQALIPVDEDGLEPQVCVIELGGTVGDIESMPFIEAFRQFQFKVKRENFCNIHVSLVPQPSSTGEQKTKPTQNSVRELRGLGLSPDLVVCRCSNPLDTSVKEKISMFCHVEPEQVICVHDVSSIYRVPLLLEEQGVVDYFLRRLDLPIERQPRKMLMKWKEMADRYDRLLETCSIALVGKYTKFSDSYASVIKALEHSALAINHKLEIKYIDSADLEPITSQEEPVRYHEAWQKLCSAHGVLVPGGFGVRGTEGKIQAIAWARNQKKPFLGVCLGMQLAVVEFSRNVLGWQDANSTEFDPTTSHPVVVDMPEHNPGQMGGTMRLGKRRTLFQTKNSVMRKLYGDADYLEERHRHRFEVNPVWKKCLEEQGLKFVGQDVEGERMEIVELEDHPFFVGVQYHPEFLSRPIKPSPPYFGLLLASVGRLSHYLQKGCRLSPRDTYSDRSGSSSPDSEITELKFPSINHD
Summary of the method: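 Full-length FLAG-His-tagged human CTPS1 and compound were preincubated 10 min at 25 °C in 50 mM Tris pH 8.0, 10 mM MgCl2, 0.01% Tween-20, 2 mM L-cysteine. Substrate mix: ATP 0.31 mM, GTP 0.034 mM, UTP 0.48 mM, glutamine 0.186 mM; linear-phase reaction at 25 °C. ADP-Glo Max luminescence; IC50 from inhibition curve.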

SMILES | IC50
CCOc1cncc(-c2ccc(NC(=O)C3(c4ccnc(NS(=O)(=O)C5CC5)n4)CCC(O)CC3)nc2)n1 (single isomer, unassigned) [Example P227, 1-(2-(cyclopropanesulfonamido)pyrimidin-4-yl)-N-(5-(6-ethoxypyrazin-2-yl)pyridin-2-yl)-4-hydroxycyclohexanecarboxamide] | ≤ 100 nM
CCOc1cncc(-c2ccc(NC(=O)C3(c4ccnc(NS(=O)(=O)C5CC5)n4)CCC(O)CC3)nc2)n1 (single isomer, unassigned) [Example P228, 1-(2-(cyclopropanesulfonamido)pyrimidin-4-yl)-N-(5-(6-ethoxypyrazin-2-yl)pyridin-2-yl)-4-hydroxycyclohexanecarboxamide] | 1000 to 10000 nM

Reference: patent publication US20230002352A1, “SULFONAMIDE DERIVATIVES AS CTPS1 INHIBITORS” (Step Pharma S.A.S., priority 2019, published 2023)
